We go through 7 molecules from patent US5512558A, “Nor-bile acid derivatives, processes for their preparation and the use of these compounds as medicaments” (Hoechst Aktiengesellschaft, priority 1993, dated 1996).

This assay addresses T1, Na+-dependent bile acid transportation system (brush border membrane vesicles of the ileum) (Oryctolagus cuniculus, UniProt Q28727).
T1 construct: Brush border membrane vesicles were prepared from the intestinal cells of the small intestine; from tissue; host or cells: brush border membrane vesicles from the terminal 7/10 of the small intestine (ileum) of male New Zealand rabbits
T1 sequence (Q28727 1-347): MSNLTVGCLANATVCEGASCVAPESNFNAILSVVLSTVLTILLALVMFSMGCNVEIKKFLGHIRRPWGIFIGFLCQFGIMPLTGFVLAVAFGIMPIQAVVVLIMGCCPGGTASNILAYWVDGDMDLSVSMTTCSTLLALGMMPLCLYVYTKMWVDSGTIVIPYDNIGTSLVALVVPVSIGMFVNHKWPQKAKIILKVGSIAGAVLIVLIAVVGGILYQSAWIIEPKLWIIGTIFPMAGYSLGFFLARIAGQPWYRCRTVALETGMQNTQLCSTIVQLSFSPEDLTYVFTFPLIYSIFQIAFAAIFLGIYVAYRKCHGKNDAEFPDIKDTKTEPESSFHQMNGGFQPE
The assay is described as follows: Inhibition of [3H]-taurocholate uptake in brush border membrane vesicles of the ileum of rabbits. The assay is classed as biochemical. The following applies: Na+-dependent part of [3H]-taurocholate uptake (difference Na-T-B minus K-T-B), rabbit ileal brush border membrane vesicles. The protocol: The compounds according to the invention were tested biologically by determination of the inhibition of ^3 H!-taurocholate uptake in the brush border membrane vesicle of the ileum of rabbits. The inhibition test was carried out as follows:
1. Preparation of brush border membrane vesicles from the ileum of rabbits
Brush border membrane vesicles were prepared from the intestinal cells of the small intestine by the so-called Mg^2+ precipitation method. Male New Zealand rabbits (2 to 2.5 kg body weight) were sacrificed by intravenous injection of 0.5 ml of an aqueous solution of 2.5 mg of tetracaine HCl, 100 T 61^R and 25 mg of mebezonium iodide. The small intestine was removed and rinsed with ice-cold physiological saline solution. The terminal 7/10 of the small intestine (measured in the oral-rectal direction, i.e. the terminal ileum, which contains the active Na^+ -dependent bile acid transportation system) was used for preparation of the brush border membrane vesicles. The intestines were frozen in plastic bags under nitrogen at -80° C. For preparation of the membrane vesicles, the frozen intestines were thawed at 30° C. in a water-bath. The mucosa was scraped off and suspended in 60 ml of ice-cold 12 mMTris/HCl buffer (pH 7.1)/300 mM mannitol, 5 mM EGTA/10 mg/l of phenylmethyl-sulfonyl fluoride/1 mg/l of trypsin inhibitor from soybean (32 U/mg)/0.5 mg/l of trypsin inhibitor from bovine lung (193 U/mg)/5 mg/l bacitracin. After dilution to 300 ml with ice-cold distilled water, the mixture was homogenized with an Ultraturrax (18-rod, IKA Werk Stuafen, FRG) for 3 minutes at 75% of the maximum power, while cooling with ice. After addition of 3 ml of 1M MgCl2 solution (final concentration 10 mM), the mixture was left to stand for exactly 1 minute at 0° C. By addition of Mg^2+, the cell membranes aggregate and precipitate, with the exception of the brush border membranes. After centrifugation at 3000×g (5000 rpm, SS-34 rotor) for 15 minutes, the precipitate is discarded and the supernatant, which contains the brush border membranes, is centrifuged at […] (15,000 rpm, SS-34 rotor) for 30 minutes. The supernatant was discarded and the precipitate was rehomogenized in 60 ml of 12 mMTris/HCl buffer (pH 7.1)/60 mM mannitol, 5 mM EGTA using a Potter Elvejhem homogenizer (Braun, Melsungen, 900 rpm, 10 strokes). After addition of 0.1 ml of 1M MgCl2 solution and an incubation time of 15 minutes at 0° C., the mixture was centrifuged again at 3000×g for 15 minutes. The supernatant was then centrifuged again at 46,000×g (15,000 rpm, SS-34 rotor) for 30 minutes. The precipitate was taken up in 30 ml of 10 mM Tris/Hepes buffer (pH 7.4)/300 mM mannitol and resuspended homogeneously by 20 strokes in a Potter Elvejhem homogenizer at 1000 rpm. After centrifugation at 48,000×g (20,000 rpm, SS-34 rotor) for 30 minutes, the precipitate was taken up in 0.5 to 2 ml of Tris/Hepes buffer (pH 7.4)/280 mM mannitol (final concentration 20 mg/ml) and resuspended with the aid of a tuberculin syringe with a 27 gauge needle. The vesicles were either used for transportation studies immediately after preparation, or stored at -196° C. in 4 mg portions in liquid nitrogen.
2. Inhibition of the Na^+ -dependent ^3 H!-taurocholate uptake in brush border membrane vesicles of the ileum
The uptake of substrates in the brush border membrane vesicles described above was determined by means of the so-called membrane filtration technique. 10 μl of the vesicle suspension (100 μg of protein) were pipetted as drops onto the wall of a polystyrene incubation tube (11×70 mm) which contained the incubation medium with the corresponding ligands (90 μl). […]
As to `C[C@H](CCC(=O)O)[C@H]1CC[C@H]2[C@@H]3[C@H](O)C[C@@H]4C[C@@H](NC(=O)C[C@@H](C)[C@H]5CC[C@H]6[C@@H]7[C@H](O)C[C@@H]8C[C@H](O)CC[C@]8(C)[C@H]7C[C@H](O)[C@]56C)CC[C@]4(C)[C@H]3C[C@H](O)[C@]12C` [Example 32], the “quotient of the IC50Na values of the reference substance taurochenodeoxycholate (TCDC) and the test substance” value (from here on “quotient”) amounted to 0.65. For `C[C@H](CCC(=O)O)[C@H]1CC[C@H]2[C@@H]3[C@H](O)C[C@@H]4C[C@@H](NC(=O)C[C@@H](C)[C@H]5CC[C@H]6[C@@H]7[C@H](O)C[C@@H]8C[C@H](O)CC[C@]8(C)[C@H]7C[C@H](O)[C@]56C)CC[C@]4(C)[C@H]3CC[C@]12C` [Example 36] the value was 1.14; for `C[C@H](CCC(=O)O)[C@H]1CC[C@H]2[C@@H]3[C@H](O)C[C@@H]4C[C@@H](OCCOCCNC(=O)[C@@H](C)[C@H]5CC[C@H]6[C@@H]7[C@H](O)C[C@@H]8C[C@H](O)CC[C@]8(C)[C@H]7C[C@H](O)[C@]56C)CC[C@]4(C)[C@H]3C[C@H](O)[C@]12C` [Example 41], 0.58. For the molecule `CC(C(=O)N[C@H]1CC[C@@]2(C)[C@@H](C1)C[C@@H](O)[C@@H]1[C@@H]2CC[C@]2(C)[C@@H]([C@H](C)CCC(=O)O)CC[C@@H]12)[C@H]1CC[C@H]2[C@@H]3[C@H](O)C[C@@H]4C[C@H](O)CC[C@]4(C)[C@H]3C[C@H](O)[C@]12C` (stereo partly shown) [Example 43], the “quotient” value was 0.78. For `C[C@H](CCC(=O)NCC(=O)O)[C@H]1CC[C@H]2[C@@H]3[C@H](O)C[C@@H]4C[C@@H](OCCOCCNC(=O)C[C@@H](C)[C@H]5CC[C@H]6[C@@H]7[C@H](O)C[C@@H]8C[C@H](O)CC[C@]8(C)[C@H]7C[C@H](O)[C@]56C)CC[C@]4(C)[C@H]3C[C@H](O)[C@]12C` [Example 57], the “quotient” value is 0.34. As for `C[C@H](CCC(=O)N[C@H]1CC[C@@]2(C)[C@@H](C1)C[C@@H](O)[C@@H]1[C@@H]2C[C@H](O)[C@]2(C)[C@@H]([C@H](C)CC(=O)O)CC[C@@H]12)[C@H]1CC[C@H]2[C@@H]3[C@H](O)C[C@@H]4C[C@H](O)CC[C@]4(C)[C@H]3CC[C@]12C` [Example 65], the “quotient” value was 0.64. In the case of `C[C@H](CC(=O)O)[C@H]1CC[C@H]2[C@@H]3[C@H](O)C[C@@H]4C[C@@H](NC(=O)[C@@H](C)[C@H]5CC[C@H]6[C@@H]7[C@H](O)C[C@@H]8C[C@H](O)CC[C@]8(C)[C@H]7C[C@H](O)[C@]56C)CC[C@]4(C)[C@H]3C[C@H](O)[C@]12C` [Example 69], the “quotient” value is recorded as 0.86.
